In US6355663B1, “Substituted isoxazolylthiophene compounds” (Taisho Pharmaceutical Co., Ltd., priority 1998, dated 2002):

Tests used:
[1] = system: osteoblasts derived from the parietal bone of rat fetus; experiment: Enhancing activity for the induction of alkaline phosphatase production in osteoblasts; assay type: cell-based; details: test compound 2.5 μg/ml; compared with activity without the test compound; rat fetal parietal bone osteoblasts
Method: The compounds of the present invention were determined for an enhancing activity for the induction of alkaline phosphatase production in osteoblasts derived from the parietal bone of rat fetus. Enhancing activities for the induction of alkaline phosphatase production at a concentration of the test compound of 2.5 μg/ml were 195% for Example 1, 155% for Example 3, 187% for Example 7 and 134% for Example 9, respectively, when compared with those activities without the test compounds.

[2] = system: osteoblasts derived from the parietal bone of rat fetus; experiment: Enhancing activity for the nodule induction in osteoblasts; assay type: cell-based; details: rat fetal parietal bone osteoblasts
Method: The compounds of the invention were determined for an enhancing activity for the nodule induction in osteoblasts derived from the parietal bone of rat fetus. Results were 342% at 1.0 μg/ml for Example 1, 501% at 2.5 μg/ml for Example 3, 576% at 2.5 μg/ml for Example 7 and 550% at 2.5 μg/ml for Example 9, respectively.

SMILES	Enhancing activity for the induction of alkaline phosphatase production [1]	Enhancing activity for the nodule induction ([2]; at 2.5 μg/ml)	melting point	Enhancing activity for the nodule induction ([2]; at 1.0 μg/ml)
CCc1c(C(N)=O)sc(SC)c1-c1oncc1C [Example 3, 3-Ethyl-4-(4-methylisoxazol-5-yl)-5-(methylthio)thiophene-2-carboxamide]	155%	501%	93.5 to 94.5 °C	
CSc1sc(C(N)=O)c(C)c1-c1oncc1C(C)C [Example 9]	134%	550%		
CCc1cnoc1-c1c(SC)sc(C(N)=O)c1C [Example 7, 4-(4-Etkylisoxazol-5-yl)-3-methyl-5-(methylthio)-thiophene-2-carboxamide]	187%	576%		
CSc1sc(C(N)=O)c(C)c1-c1oncc1C [Example 1, 3,4′-Dimethyl-4-(isoxazol-5-yl)-5-(methylthio)thiophene-2-carboxamide]	195%			342%
